Reference: patent US9833497B2, “Human originated EGF domain proteins and use of the same” (CHENGDU SOURCEBIO LIMITED-LIABILITY COMPANY, priority 2013, dated 2017)

Experiments:
Assay type in all cases: cell-based
[1] = test system: E. coli DH5α; experiment: Antibacterial activity: MIC and growth curve against E. coli DH5α in 96-well plate; details: minimal inhibitory concentration against E. coli DH5α; 96-well plate, 5×10^5 CFU/mL, 37° C., judged after 8 h
In short: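 Log-phase DH5α (OD600 about 0.5, 37° C, 185 rpm in LB) was pelleted, resuspended in fresh LB and seeded at 5×10^5 CFU/mL with recombinant protein at 50, 25 and 12.5 μg/mL (two-fold series), in triplicate. Plates were shaken at 175 rpm, 37° C, and OD600 was read every 30 min. MIC was the lowest concentration with no growth.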

[2] = test system: E. coli BL21; experiment: MIC against Gram-negative bacteria: E. coli BL21
In short: (§1)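 Read-out is absence of bacterial growth, with MIC set at the lowest recombinant protein concentration achieving it. Bacteria, pre-grown in LB to McFarland 0.5 and resuspended, were exposed at 5×10^5 CFU/mL to two-fold diluted human EGF domain proteins in triplicate at 37° C, 175 rpm.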

[3] = test system: Pseudomonas aeruginosa; experiment: MIC against Gram-negative bacteria: Pseudomonas aeruginosa
In short: as §1

[4] = test system: Klebsiella pneumonia; experiment: MIC against Gram-negative bacteria: Klebsiella pneumonia
In short: as §1

[5] = test system: Enterobacter cloacae; experiment: MIC against Gram-negative bacteria: Enterobacter cloacae
In short: as §1

[6] = test system: Aeromonas hydrophila; experiment: MIC against Gram-negative bacteria: Aeromonas hydrophila
In short: as §1

[7] = test system: Citrobacter diversus; experiment: MIC against Gram-negative bacteria: Citrobacter diversus
In short: as §1

[8] = test system: Moraxella catarrhalis; experiment: MIC against Gram-negative bacteria: Moraxella catarrhalis
In short: as §1

[9] = test system: Proteus mirabilis; experiment: MIC against Gram-negative bacteria: Proteus mirabilis
In short: as §1

[10] = test system: Proteus vulgaris; experiment: MIC against Gram-negative bacteria: Proteus vulgaris
In short: as §1

[11] = test system: Serratia marcescens; experiment: MIC against Gram-negative bacteria: Serratia marcescens
In short: as §1

[12] = E. coli BL21, 10 h cultivation at 37° C.
[13] = P. aeruginosa, 10 h cultivation at 37° C.
[14] = K. pneumonia, 10 h cultivation at 37° C.
[15] = E. cloacae, 10 h cultivation at 37° C.
[16] = A. hydrophila, 10 h cultivation at 37° C.
[17] = C. diversus, 10 h cultivation at 37° C.
[18] = M. catarrhalis, 10 h cultivation at 37° C.
[19] = P. mirabilis, 10 h cultivation at 37° C.
[20] = P. vulgaris, 10 h cultivation at 37° C.
[21] = S. marcescens, 10 h cultivation at 37° C.
[22] = E. coli BL21, 10 h cultivation at 37° C., 5×10^5 CFU/mL
[23] = P. aeruginosa, 10 h cultivation at 37° C., 5×10^5 CFU/mL
[24] = K. pneumonia, 10 h cultivation at 37° C., 5×10^5 CFU/mL
[25] = E. cloacae, 10 h cultivation at 37° C., 5×10^5 CFU/mL
[26] = A. hydrophila, 10 h cultivation at 37° C., 5×10^5 CFU/mL
[27] = C. diversus, 10 h cultivation at 37° C., 5×10^5 CFU/mL
[28] = M. catarrhalis, 10 h cultivation at 37° C., 5×10^5 CFU/mL
[29] = P. mirabilis, 10 h cultivation at 37° C., 5×10^5 CFU/mL
[30] = P. vulgaris, 10 h cultivation at 37° C., 5×10^5 CFU/mL
[31] = S. marcescens, 10 h cultivation at 37° C., 5×10^5 CFU/mL
[32] = E. coli BL21, 96-well plate, 5×10^5 CFU/mL, 37° C., 10 h
[33] = Pseudomonas aeruginosa, 96-well plate, 5×10^5 CFU/mL, 37° C., 10 h
[34] = Klebsiella pneumonia, 96-well plate, 5×10^5 CFU/mL, 37° C., 10 h
[35] = Enterobacter cloacae, 96-well plate, 5×10^5 CFU/mL, 37° C., 10 h
[36] = Aeromonas hydrophila, 96-well plate, 5×10^5 CFU/mL, 37° C., 10 h
[37] = Citrobacter diversus, 96-well plate, 5×10^5 CFU/mL, 37° C., 10 h
[38] = Moraxella catarrhalis, 96-well plate, 5×10^5 CFU/mL, 37° C., 10 h
[39] = Proteus mirabilis, 96-well plate, 5×10^5 CFU/mL, 37° C., 10 h
[40] = Proteus vulgaris, 96-well plate, 5×10^5 CFU/mL, 37° C., 10 h
[41] = Serratia marcescens, 96-well plate, 5×10^5 CFU/mL, 37° C., 10 h
[42] = 10 h cultivation at 37° C., 5×10^5 CFU/mL, two-fold serial dilution
[43] = 96-well plate, 5×10^5 CFU/mL, 37° C., 10 h

PRT1036 (VEDKCEKACRPEEECLALNSTWGCFCRQDLNSSDVHSLQPQLDCG; listed as Homo sapiens)
12.5 µg/mL: MIC [6, 16] | MIC [8, 18]
25 µg/mL: MIC [1] | MIC [3, 13] | MIC [4, 14]
50 µg/mL: MIC [2, 12] | MIC [5, 15] | MIC [7, 17] | MIC [9, 19] | MIC [10, 20] | MIC [11, 21]

PRT893 (NINECSSQPCRHGGTCQDRDNAYLCFCLKGTTGPNCE; listed as Homo sapiens)
50 µg/mL: MIC (μg/mL) P. aeruginosa [3, 23] | MIC (μg/mL) C. diversus [7, 27] | MIC (μg/mL) P. vulgaris [10, 30]
12.5 µg/mL: MIC [1] | MIC (μg/mL) E. cloacae [5, 25] | MIC (μg/mL) P. mirabilis [9, 29] | MIC (μg/mL) S. marcescens [11, 31]
25 µg/mL: MIC (μg/mL) E. coli BL21 [2, 22] | MIC (μg/mL) K. pneumonia [4, 24] | MIC (μg/mL) A. hydrophila [6, 26] | MIC (μg/mL) M. catarrhalis [8, 28]

PRT132 (ISDRCLPNYCEHGGECSQSWSTFHCNCTNTGYRGATCH; listed as Homo sapiens)
12.5 µg/mL: MIC (μg/mL) E. coli BL21 [2, 32] | MIC (μg/mL) P. aeruginosa [3, 33] | MIC (μg/mL) K. pneumonia [4, 34] | MIC (μg/mL) M. catarrhalis [8, 38] | MIC (μg/mL) S. marcescens [11, 41]
50 µg/mL: MIC (μg/mL) A. hydrophila [6, 36] | MIC (μg/mL) P. vulgaris [10, 40]
25 µg/mL: MIC [1] | MIC (μg/mL) E. cloacae [5, 35] | MIC (μg/mL) C. diversus [7, 37] | MIC (μg/mL) P. mirabilis [9, 39]

PRT1494 (KALCTPRCMNGGLCVTPGFCICPPGFYGVNCD; listed as Homo sapiens)
25 µg/mL: MIC [1] | MIC (μg/mL) P. aeruginosa [3, 33] | MIC (μg/mL) E. cloacae [5, 35] | MIC (μg/mL) C. diversus [7, 37] | MIC (μg/mL) M. catarrhalis [8, 38]
12.5 µg/mL: MIC (μg/mL) E. coli BL21 [2, 32] | MIC (μg/mL) K. pneumonia [4, 34] | MIC (μg/mL) A. hydrophila [6, 36] | MIC (μg/mL) P. mirabilis [9, 39] | MIC (μg/mL) P. vulgaris [10, 40] | MIC (μg/mL) S. marcescens [11, 41]

PRT1193 (DANECEGKPCLNAFSCKNLIGGYYCDCIPGWKGINCH; listed as Homo sapiens)
12.5 µg/mL: MIC [1] | MIC E. coli BL21 [2, 42] | MIC P. aeruginosa [3, 42] | MIC E. cloacae [5, 42] | MIC A. hydrophila [6, 42] | MIC M. catarrhalis [8, 42] | MIC S. marcescens [11, 42]
25 µg/mL: MIC K. pneumonia [4, 42] | MIC C. diversus [7, 42] | MIC P. vulgaris [10, 42]
50 µg/mL: MIC P. mirabilis [9, 42]

PRT417 (DVNECQRYPGRLCGHKCENTLGSYLCSCSVGFRLSVDGRSCE; listed as Homo sapiens)
50 µg/mL: MIC [2, 22]
12.5 µg/mL: MIC [4, 24] | MIC [6, 26] | MIC [8, 28] | MIC [9, 29] | MIC [10, 30] | MIC [11, 31]
25 µg/mL: MIC [1] | MIC [3, 23] | MIC [5, 25] | MIC [7, 27]

PRT1278 (DIDECRLNNGGCDHICRNTVGSFECSCKKGYKLLINERNCQ; listed as Homo sapiens)
12.5 µg/mL: MIC against E. coli BL21 [2, 32] | MIC against P. aeruginosa [3, 33] | MIC against K. pneumonia [4, 34] | MIC against E. cloacae [5, 35] | MIC against A. hydrophila [6, 36] | MIC against C. diversus [7, 37] | MIC against M. catarrhalis [8, 38] | MIC against P. mirabilis [9, 39] | MIC against P. vulgaris [10, 40] | MIC against S. marcescens [11, 41]
25 µg/mL: MIC [1]

PRT996 (DIDECRSSPCANGGQCQDQPGAFHCKCLPGFEGPRCQ; listed as Homo sapiens)
12.5 µg/mL: MIC [2, 12] | MIC [4, 14] | MIC [5, 15] | MIC [7, 17] | MIC [9, 19] | MIC [11, 21]
25 µg/mL: MIC [1] | MIC [3, 13] | MIC [8, 18] | MIC [10, 20]
100 µg/mL: MIC [6, 16]

PRT705 (LDDSCKLTCENGGRCILNEKGDLRCHCWPSYSGE; listed as Homo sapiens)
12.5 µg/mL: MIC P. aeruginosa [3, 43] | MIC E. cloacae [5, 43] | MIC P. vulgaris [10, 43]
25 µg/mL: MIC [1] | MIC A. hydrophila [6, 43] | MIC M. catarrhalis [8, 43]
100 µg/mL: MIC C. diversus [7, 43]
50 µg/mL: MIC E. coli BL21 [2, 43] | MIC K. pneumonia [4, 43] | MIC P. mirabilis [9, 43] | MIC S. marcescens [11, 43]

PRT881 (AEGPCGERPCENGGICFLLDGHPTCDCSTTGYGGKLCS; listed as Homo sapiens)
25 µg/mL: MIC (μg/mL) K. pneumonia [4, 24] | MIC (μg/mL) A. hydrophila [6, 26] | MIC (μg/mL) M. catarrhalis [8, 28] | MIC (μg/mL) P. vulgaris [10, 30]
12.5 µg/mL: MIC [1] | MIC (μg/mL) E. coli BL21 [2, 22] | MIC (μg/mL) P. aeruginosa [3, 23] | MIC (μg/mL) E. cloacae [5, 25] | MIC (μg/mL) C. diversus [7, 27] | MIC (μg/mL) P. mirabilis [9, 29] | MIC (μg/mL) S. marcescens [11, 31]

PRT966 (PSHPCAHEPCSHGICYDAPGGFRCVCEPGWSGPRCS; listed as Homo sapiens)
12.5 µg/mL: MIC [2, 12] | MIC [5, 15] | MIC [8, 18] | MIC [11, 21]
50 µg/mL: MIC [1] | MIC [3, 13] | MIC [6, 16] | MIC [9, 19]
25 µg/mL: MIC [4, 14] | MIC [7, 17] | MIC [10, 20]

PRT207 (RSSNCSAQCHNHGVCNHKQECHCHAGWAPPHCA; listed as Homo sapiens)
12.5 µg/mL: MIC [1] | MIC (μg/mL) P. aeruginosa [3, 23] | MIC (μg/mL) E. cloacae [5, 25] | MIC (μg/mL) C. diversus [7, 27] | MIC (μg/mL) P. mirabilis [9, 29]
50 µg/mL: MIC (μg/mL) E. coli BL21 [2, 22] | MIC (μg/mL) K. pneumonia [4, 24] | MIC (μg/mL) A. hydrophila [6, 26] | MIC (μg/mL) M. catarrhalis [8, 28] | MIC (μg/mL) S. marcescens [11, 31]
25 µg/mL: MIC (μg/mL) P. vulgaris [10, 30]

PRT974 (EADPCLSRPCLHGGVCSAAHPGFRCTCLESFTGPQCQ; listed as Homo sapiens)
12.5 µg/mL: MIC [3, 13] | MIC [5, 15] | MIC [8, 18] | MIC [11, 21]
25 µg/mL: MIC [1] | MIC [7, 17] | MIC [10, 20]
50 µg/mL: MIC [2, 12] | MIC [4, 14] | MIC [6, 16] | MIC [9, 19]

PRT1041 (VPLCAQECVHGRCVAPNQCQCVPGWRGDDCS; listed as Homo sapiens)
12.5 µg/mL: MIC [1] | MIC [7, 17]
50 µg/mL: MIC [3, 13] | MIC [5, 15] | MIC [6, 16] | MIC [8, 18] | MIC [10, 20]
25 µg/mL: MIC [2, 12] | MIC [4, 14] | MIC [9, 19] | MIC [11, 21]

PRT1006 (PLSSCQKAALSQGIDVSSLCHNGGLCVDSGPSYFCHCPPGFQGSLCQ; listed as Homo sapiens)
50 µg/mL: MIC [2, 12] | MIC [4, 14] | MIC [6, 16] | MIC [10, 20]
12.5 µg/mL: MIC [1] | MIC [3, 13] | MIC [5, 15] | MIC [8, 18]
25 µg/mL: MIC [7, 17] | MIC [9, 19] | MIC [11, 21]
